From patent US8759534B2, “Trimethine cyanine and its use” (Orgchem Technologies, Inc., priority 2011, dated 2014) come the findings set out here.

The data set is described as follows: Solubility in TFP. The note with it: solvent TFP (2,2,3,3-tetrafluoro-1-propanol). The class given is physicochemical.

For the compound `CCCN1/C(=C/C=C/C2=[N+](CCC(C)C)c3ccc4ccccc4c3C2(C)CC=CCC2(C)C(/C=C/C=C3/N(CCC)c4ccccc4C3(C)C)=[N+](CCC(C)C)c3ccc4ccccc4c32)C(C)(C)c2ccccc21` (centres unmarked) [Compound No. 34], the “Solubility (in TFP)” value stood at 4.17%.

Regarding `CCN1/C(=C/C=C/C2=[N+](C)c3ccc4ccccc4c3C2(C)Cc2ccc(Cc3ccc(CC4(C)C(/C=C/C=C5/N(CC)c6ccc7ccccc7c6C5(C)Cc5ccccc5)=[N+](C)c5ccc6ccccc6c54)cc3)cc2)C(C)(Cc2ccccc2)c2c1ccc1ccccc21` (centres unmarked) [Compound No. 13], the “Solubility (in TFP)” value came out at 3.6%.

Consider `CN1/C(=C/C=C/C2=[N+](C)c3ccc4ccccc4c3C2(C)Cc2ccc(Oc3ccc(CC4(C)C(/C=C/C=C5/N(C)c6ccc7ccccc7c6C5(C)Cc5ccccc5)=[N+](C)c5ccc6ccccc6c54)cc3)cc2)C(C)(Cc2ccccc2)c2c1ccc1ccccc21` (centres unmarked) [Compound No. 1], for which the “Solubility (in TFP)” value is reported as 4.8%.

In the case of `CN1/C(=C/C=C/C2=[N+](C)c3ccc4ccccc4c3C2(C)CC=CCC2(C)C(/C=C/C=C3/N(C)c4ccc5ccccc5c4C3(C)Cc3ccccc3)=[N+](C)c3ccc4ccccc4c32)C(C)(Cc2ccccc2)c2c1ccc1ccccc21` (centres unmarked) [Compound No. 26], the “Solubility (in TFP)” value stood at 5.3%.

With `CN1/C(=C/C=C/C2=[N+](Cc3ccccc3)c3ccc4ccccc4c3C2(C)CC=CCC2(C)C(/C=C/C=C3/N(C)c4ccc5ccccc5c4C3(C)Cc3ccccc3)=[N+](Cc3ccccc3)c3ccc4ccccc4c32)C(C)(Cc2ccccc2)c2c1ccc1ccccc21` (centres unmarked) [Compound No. 29], the “Solubility (in TFP)” value worked out at 5.3%.
